Source: article PMC9405596, “Evaluation of the Anti-Leishmania mexicana and -Trypanosoma brucei Activity and Mode of Action of 4,4′-(Arylmethylene)bis(3-methyl-1-phenyl-1H-pyrazol-5-ol)” (Biomedicines, 2022)
“Also recorded” adds a separate entry of the source. Read-outs that look alike come from different tables or passages of the source.

Key:
[1] = system: bloodstream form of T. b. brucei (strain 427); test: Bioluminescence viability assay against bloodstream T. b. brucei expressing luciferase; settings: for anti-T. brucei activity in preliminary screening, in words: 10 µM; for activity at 10 µM: read-out: T. brucei bloodstream % Growth (10 µM), 10 µM, 24 h
[2] = MTT cytotoxicity assay, HepG2; assay type: cell-based; settings: human, HepG2 cells, HepG2, 72 h, read-out: CC50 HepG2 Hepatocytes
Description: (§1) Murine macrophages (cell line RAW 264.7, ATCC® TIB-71™) were grown in Dulbecco’s Modified Eagle Medium (DMEM) (Gibco, Invitrogen, Waltham, MA, USA) supplemented with 10% fetal bovine serum (FBS) (Eurobio) and 100 IU/mL penicillin + 100 µg/mL streptomycin (Gibco), at 37 °C, in an atmosphere containing 5% CO2. Human hepatocyte cell line HepG2 (ATCC® HB-8065™) was grown in MEM (Gibco, Invitrogen) supplemented with 10% FBS (Gibco, Invitrogen), 1% NEAA (Gibco, Invitrogen), and 1% L-glutamine (Gibco, Invitrogen). The medium was renewed twice a week. For both cell lines, the viability was determined using the MTT assay as described before for leishmanicidal activity assessment, with some variations. Here, 5 × 10^4 cells/well in a final volume of 100 µL were seeded into a 96-well plate, in triplicate for RAW macrophages and in duplicate for HepG2. Saponin (2.4 mg/mL) and untreated cells were used as positive control and negative control, respectively. Compounds were dissolved in DMSO to obtain different serial concentrations (1.56 to 800 µM) for RAW macrophages and 100–0.001 µM for HepG2. The final concentration of DMSO in each well was 0.5%. After exposure to compounds for 48 h and 72 h for RAW and HepG2 cells, respectively, 10 µL/well of MTT (5 mg/mL in PBS) was added, incubated at 37 °C for 2 h in darkness, and cells were pelleted via centrifugation at 4400 rpm for 10 min. The medium was removed, and 100 µL/well of DMSO was added to dissolve formazan. The absorbance at 570 and 630 nm was recorded following the same procedure as with parasites.

[3] = system: L. mexicana promastigotes; test: MTT viability assay against L. mexicana promastigotes; assay type: cell-based, Leishmania mexicana; settings: for L. mexicana Promastigote SI vs. Hepatocytes: CC50 HepG2 hepatocytes/IC50 L. mexicana; for L. mexicana Promastigote SI vs. Macrophage: CC50 RAW macrophages/IC50 L. mexicana; for IC50: 48 h
Description: The leishmanicidal activity against promastigotes from L. mexicana was evaluated by measuring parasites’ mitochondrial activity using the MTT (Thiazolyl Blue Tetrazolium Bromide) colorimetric assay as described previously. […] The medium was renewed every third day and subcultures were prepared when parasite density reached 1 × 10^7 parasites/mL. A Neubauer chamber was used to determine parasite density.

[4] = MTT cytotoxicity assay, murine macrophages; assay type: cell-based; settings: mouse, RAW 264.7 macrophage cells, RAW 264.7, 48 h
Description: as §1

[5] = Leishmania mexicana, read-out: L. mexicana Promastigote IC50, promastigotes, 48 h, MTT
[6] = read-out: L. mexicana Promastigote IC50, promastigotes, MTT

Row | SMILES | anti-T. brucei activity in preliminary screening, in words [1] | activity at 10 µM ([1]; Trypanosoma brucei, 24 h) [%] | CC50 at 72 h [2] [µM] | melting point [°C] | L. mexicana Promastigote SI vs. Hepatocytes [3] | L. mexicana Promastigote SI vs. Macrophage [3] | IC50 [3, 5] [µM] | CC50 at 48 h [4] [µM] | IC50 [3, 6] [µM] | CC50 at 48 h ([4]; positive control) [µg/mL] | inhibition at 10 µM ([1]; Trypanosoma brucei, 24 h, read-out: T. brucei growth inhibition at 10 µM) [%]
1 | COc1cc(C(c2c(C)nn(-c3ccccc3)c2O)c2c(C)nn(-c3ccccc3)c2O)cc(OC)c1O [Compound 2m] | inactive | > 100 | > 100 | 208 to 209.5 | >4.3 | 12.4 | 23 ± 5 | 286 ± 51 |  |  | 
2 | Cc1nn(-c2ccccc2)c(O)c1C(c1cccc([N+](=O)[O-])c1)c1c(C)nn(-c2ccccc2)c1O [Compound 2d] |  | 73 ± 4 | > 100 |  | >10 | 7.5 | ≤ 10 | 75 ± 15 | 10 ± 3 |  | 
3 | Cc1nn(-c2ccccc2)c(O)c1C(c1ccc(F)cc1)c1c(C)nn(-c2ccccc2)c1O [Compound 2p] |  | 79 ± 8 | 13 ± 2 | 183.8 to 185.8 | 0.8 | 2.5 | 17 ± 1 | 43 ± 6 |  |  | 
4 | CC1(C)[C@@H](O[C@@H]2OC[C@H](O[C@@H]3OC[C@@H](O)[C@H](O)[C@H]3O)[C@H](O[C@H]3O[C@H](CO)[C@@H](O)[C@H](O)[C@H]3O)[C@H]2O[C@@H]2O[C@H](CO)[C@@H](O)[C@H](O)[C@H]2O[C@H]2O[C@H](CO)[C@@H](O)[C@H](O)[C@H]2O)CC[C@]2(C)[C@H]3CCC45OCC6(CC[C@@](C)(C=O)C[C@@H]64)[C@H](O)C[C@@]5(C)[C@]3(C)CC[C@@H]12 (stereo partly shown) [Saponin, reference compound] |  |  |  |  |  |  |  |  |  | 160 ± 30 | 
5 | Cc1nn(-c2ccccc2)c(O)c1C(c1ccccc1)c1c(C)nn(-c2ccccc2)c1O [Compound 2b] |  | 74 ± 7 | > 100 | 159.5 to 161.1 | >3.1 | 6.4 | 32 ± 7 | 206 ± 28 |  |  | 
6 | COc1ccc(C(c2c(C)nn(-c3ccccc3)c2O)c2c(C)nn(-c3ccccc3)c2O)cc1O [Compound 2j] | inactive | > 100 | > 100 | 200 to 202 | >10 | 11.3 | 10 ± 4 | 113 ± 15 |  |  | 
7 | Cc1nn(-c2ccccc2)c(O)c1C(c1ccc(OC(F)(F)F)cc1)c1c(C)nn(-c2ccccc2)c1O [Compound 2s] | inactive | > 100 | 26 ± 15 | 174.5 to 176 | 8.7 | 14.3 |  | 49 ± 15 |  |  | 
8 | Cc1nn(-c2ccccc2)c(O)c1C(c1ccccc1[N+](=O)[O-])c1c(C)nn(-c2ccccc2)c1O [Compound 2c] |  | 68 ± 5 | 26 ± 16 | 210 to 211 | 1.5 | 3.1 | 17 ± 8 | 53 ± 6 |  |  | 
9 | Cc1nn(-c2ccccc2)c(O)c1C(c1ccccc1C(F)(F)F)c1c(C)nn(-c2ccccc2)c1O [Compound 2v, 4,4′-[(2-trifluoromethylphenyl)methylene]bis(3-methyl-1-phenyl-1H-pyrazol-5-ol)] | inactive; also recorded: lacked activity |  | 21 ± 2 | 245 to 248 | 3.5 | 15.1 | ≤ 10 | 91 ± 18 | 6 ± 1 |  | 
10 | Cc1nn(-c2ccccc2)c(O)c1C(c1ccccc1O)c1c(C)nn(-c2ccccc2)c1O [Compound 2a] |  | 77 ± 5 | > 100 | 219.5 to 220.6 |  | 4.3 | 12 ± 3 | 51 ± 6 |  |  | 23
